24 compounds from patent US20250101041A1, “POSITIVE ALLOSTERIC MODULATORS OF THE MUSCARINIC ACETYLCHOLINE RECEPTOR M4” (Vanderbilt University, priority 2022, published 2025) can be followed below.

The target of the experiment is T1, human mAChR M4 (Homo sapiens, UniProt P08173).
T1 construct: expressed in transfected cells; host or cells: CHO-K1 (American Type Culture Collection), stably expressing hM4 and Gqi5
T1 sequence (P08173 1-479): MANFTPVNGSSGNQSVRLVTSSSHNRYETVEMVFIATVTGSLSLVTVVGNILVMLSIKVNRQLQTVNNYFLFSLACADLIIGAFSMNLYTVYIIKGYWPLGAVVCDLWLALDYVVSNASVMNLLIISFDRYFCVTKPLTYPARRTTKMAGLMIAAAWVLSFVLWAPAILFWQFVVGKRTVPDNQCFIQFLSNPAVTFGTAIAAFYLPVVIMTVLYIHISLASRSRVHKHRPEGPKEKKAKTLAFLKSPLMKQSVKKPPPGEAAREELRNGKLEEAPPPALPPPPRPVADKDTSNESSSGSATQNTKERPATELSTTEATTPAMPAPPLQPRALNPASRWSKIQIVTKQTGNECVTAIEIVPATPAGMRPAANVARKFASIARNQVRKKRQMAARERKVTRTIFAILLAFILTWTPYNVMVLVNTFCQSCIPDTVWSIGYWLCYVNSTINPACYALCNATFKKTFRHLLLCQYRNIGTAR
Description: mAChR M4 cell-based functional assay: calcium mobilization (Fluo-4, FDSS), potentiation of EC20 acetylcholine response in hM4-Gqi5 CHO-K1 cells. The note with it: human M4; for Emax at 30 µM: CHO-K1, % ACh maximum at 30 μM; for pEC50: potentiation of EC20 acetylcholine response, calcium mobilization. Put shortly:
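Readout is the fluorescence-ratio rise at 1 Hz on FDSS, with PAM activity taken as concentration-dependent enhancement of the EC20 acetylcholine response, fitted four-parameter for EC50/Emax. hM4-Gqi5 CHO-K1 cells carried Fluo-4 AM dye; test compounds (11 points, 1:3) preceded EC20 acetylcholine additions at 144 s and 230 s.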

pEC50: −log10 of the molar value.

For the compound `Cc1cc2nc(C(F)F)cc(=O)n2nc1N1CCc2ncc(C(F)(F)F)cc2C1` [Compound 1-26, 2-(difluoromethyl)-8-methyl-7-(3-(trifluoromethyl)-7,8-dihydro-1,6-naphthyridin-6(5H)-yl)-4H-pyrimido[1,2-b]pyridazin-4-one], the Emax at 30 µM stood at 74% and the pEC50 was 6.85.
For `Cc1cc2nccc(=O)n2nc1N1CCc2ncc(-c3c(C)nn(C)c3C)cc2C1` [Compound 1-424, 8-methyl-7-(3-(1,3,5-trimethyl-1H-pyrazol-4-yl)-7,8-dihydro-1,6-naphthyridin-6(5H)-yl)-4H-pyrimido[1,2-b] pyridazin-4-one], the Emax at 30 µM was found to be 84% and the pEC50 was 6.13.
With `Cc1nc(-c2cnc3c(c2)CN(c2nn4c(=O)ccnc4cc2C)CC3)cs1` [Compound 1-389, 8-methyl-7-(3-(2-methylthiazol-4-yl)-7,8-dihydro-1,6-naphthyridin-6(5H)-yl)-4H-pyrimido[1,2-b] pyridazin-4-one], the maximum response (Emax) at 30 µM amounted to 63% and the pEC50 was 6.57.
On the same counts, the results for `Cc1c(N2CCc3ncc(-c4ccccc4C(F)(F)F)cc3C2)nn2c(=O)ccnc2c1C` [Compound 1-266, 8,9-dimethyl-7-(3-(2-(trifluoromethyl)phenyl)-7,8-dihydro-1,6-naphthyridin-6(5H)-yl)-4H-pyrimido[1,2-b] pyridazin-4-one] are 81% and 6.21.
The matching figures for `Cc1cnccc1-c1cnc2c(c1)CN(c1nn3c(=O)cc(C(F)F)nc3c(C)c1C)CC2` [Compound 1-307, 2-(difluoromethyl)-8,9-dimethyl-7-(3-(3-methylpyridin-4-yl)-7,8-dihydro-1,6-naphthyridin-6(5H)-yl)-4H-pyrimido[1,2-b]pyridazin-4-one]: 88% and 7.16.
On the same counts, the results for `Cc1c(N2CCc3ncc(N4CCCn5nccc54)cc3C2)nn2c(=O)ccnc2c1C` [Compound 2-36, 7-(3-(6,7-dihydropyrazolo[1,5-a]pyrimidin-4(5H)-yl)-7,8-dihydro-1,6-naphthyridin-6(5H)-yl)-8,9-dimethyl-4H-pyrimido[1,2-b]pyridazin-4-one] are 103% and 7.89.
Take `Cc1c(N2CCc3ncc(-c4cncc(Cl)c4)cc3C2)nn2c(=O)cc(C(F)F)nc2c1C` [Compound 1-160, 7-(3-(5-chloropyridin-3-yl)-7,8-dihydro-1,6-naphthyridin-6(5H)-yl)-2-(difluoromethyl)-8,9-dimethyl-4H-pyrimido[1,2-b]pyridazin-4-one]: the Emax at 30 µM was 82% and the pEC50 is 6.26.
On the same counts, the results for `Cc1cc(=O)n2nc(N3CCc4ncc(-c5cnccc5Cl)cc4C3)c(C)c(C)c2n1` [Compound 1-126, 7-(3-(4-chloropyridin-3-yl)-7,8-dihydro-1,6-naphthyridin-6(5H)-yl)-2,8,9-trimethyl-4H-pyrimido[1,2-b]pyridazin-4-one] are 88% and 6.12.
The matching figures for `Cc1c(N2CCc3ncc(N4C(=O)Cc5ncccc54)cc3C2)nn2c(=O)ccnc2c1C` [Compound 2-149, 8,9-dimethyl-7-(3-(2-oxo-2,3-dihydro-1H-pyrrolo[3,2-b]pyridin-1-yl)-7,8-dihydro-1,6-naphthyridin-6(5H)-yl)-4H-pyrimido[1,2-b]pyridazin-4-one]: 50% and 5.98.
On the same counts, the results for `Cc1ncccc1-c1cnc2c(c1)CN(c1nn3c(=O)ccnc3c(C)c1C)CC2` [Compound 1-101, 8,9-dimethyl-7-(3-(2-methylpyridin-3-yl)-7,8-dihydro-1,6-naphthyridin-6(5H)-yl)-4H-pyrimido[1,2-b]pyridazin-4-one] are 93% and 6.48.
As to `Cc1cc(=O)n2nc(N3CCc4ncc(N5CCC6(CC5)COC6)cc4C3)c(C)c(C)c2n1` [Compound 2-47, 7-(3-(2-oxa-7-azaspiro[3.5]nonan-7-yl)-7,8-dihydro-1,6-naphthyridin-6(5H)-yl)-2,8,9-trimethyl-4H-pyrimido[1,2-b]pyridazin-4-one], the Emax at 30 µM is 66% and the negative-log EC50 (pEC50) is 5.67.
`Cc1c(N2CCc3ncc(N4CCOC4=O)cc3C2)nn2c(=O)ccnc2c1C` [Compound 2-144, 3-(6-(8,9-dimethyl-4-oxo-4H-pyrimido[1,2-b]pyridazin-7-yl)-5,6,7,8-tetrahydro-1,6-naphthyridin-3-yl)oxazolidin-2-one]: the Emax at 30 µM worked out at 98% and the negative logarithm of the EC50 (pEC50) was 5.80.
Take `Cc1cc(F)cnc1-c1cnc2c(c1)CN(c1nn3c(=O)ccnc3cc1C)CC2` [Compound 1-350, 7-(3-(5-fluoro-3-methylpyridin-2-yl)-7,8-dihydro-1,6-naphthyridin-6(5H)-yl)-8-methyl-4H-pyrimido[1,2-b]pyridazin-4-one]: the Emax at 30 µM was found to be 72% and the pEC50 is 5.46.
On the same counts, the results for `COc1cc(C)c(-c2cnc3c(c2)CN(c2nn4c(=O)ccnc4c(C)c2C)CC3)cn1` [Compound 1-139, 7-(3-(6-methoxy-4-methylpyridin-3-yl)-7,8-dihydro-1,6-naphthyridin-6(5H)-yl)-8,9-dimethyl-4H-pyrimido[1,2-b]pyridazin-4-one] are 98% and 7.11.
On the same counts, the results for `Cc1c(N2CCc3ncc(-c4cccnc4)cc3C2)nn2c(=O)ccnc2c1C` [Compound 1-148, 8,9-dimethyl-7-(3-(pyridin-3-yl)-7,8-dihydro-1,6-naphthyridin-6(5H)-yl)-4H-pyrimido[1,2-b]pyridazin-4-one] are 89% and 6.46.
On to `Cc1cc2nccc(=O)n2nc1N1CCc2ncc(-c3cnc(C)n3C)cc2C1` [Compound 1-323, 7-(3-(1,2-dimethyl-1H-imidazol-5-yl)-7,8-dihydro-1,6-naphthyridin-6(5H)-yl)-8-methyl-4H-pyrimido[1,2-b]pyridazin-4-one], for which the Emax at 30 µM is 71% and the pEC50 is 5.98.
With `Cc1cc2nccc(=O)n2nc1N1CCc2ncc(-c3cncc(F)c3C)cc2C1` [Compound 1-399, 7-(3-(5-fluoro-4-methylpyridin-3-yl)-7,8-dihydro-1,6-naphthyridin-6(5H)-yl)-8-methyl-4H-pyrimido[1,2-b]pyridazin-4-one], the Emax at 30 µM was determined as 63% and the negative logarithm of the EC50 (pEC50) was 6.89.
On the same counts, the results for `Cc1cc(=O)n2nc(N3CCc4ncc(-c5ccccc5OC(C)C)cc4C3)c(C)c(C)c2n1` [Compound 1-280, 7-(3-(2-isopropoxyphenyl)-7,8-dihydro-1,6-naphthyridin-6(5H)-yl)-2,8,9-trimethyl-4H-pyrimido[1,2-b]pyridazin-4-one] are 52% and 6.53.
The matching figures for `Cc1cc2nc(C(F)F)cc(=O)n2nc1N1CCc2ncc(N3CCO[C@H](C)C3)cc2C1` [Compound 2-25, (R)-2-(difluoromethyl)-8-methyl-7-(3-(2-methylmorpholino)-7,8-dihydro-1,6-naphthyridin-6(5H)-yl)-4H-pyrimido[1,2-b]pyridazin-4-one]: 90% and 6.68.
On the same counts, the results for `Cc1cc(N2CCc3ncc(N4CCCn5nccc54)cc3C2)nn2c(=O)ccnc12` [Compound 2-3, 7-(3-(6,7-dihydropyrazolo[1,5-a]pyrimidin-4(5H)-yl)-7,8-dihydro-1,6-naphthyridin-6(5H)-yl)-9-methyl-4H-pyrimido[1,2-b]pyridazin-4-one] are 71% and 6.76.
Take `Cc1cc2nccc(=O)n2nc1N1CCc2ncc(Nc3cncc(F)c3)cc2C1` [Compound 2-128, 7-(3-((5-fluoropyridin-3-yl)amino)-7,8-dihydro-1,6-naphthyridin-6(5H)-yl)-8-methyl-4H-pyrimido[1,2-b]pyridazin-4-one]: the Emax at 30 µM is 82% and the negative logarithm of the EC50 (pEC50) was 7.05.
The matching figures for `Cc1cc2nccc(=O)n2nc1N1CCc2ncc(-c3scnc3C)cc2C1` [Compound 1-395, 8-methyl-7-(3-(4-methylthiazol-5-yl)-7,8-dihydro-1,6-naphthyridin-6(5H)-yl)-4H-pyrimido[1,2-b]pyridazin-4-one]: 90% and 6.86.
On the same counts, the results for `Cc1ccc(-c2cnc3c(c2)CN(c2nn4c(=O)cc(C)nc4c(C)c2C)CC3)c(C)c1` [Compound 1-136, 7-(3-(2,4-dimethylphenyl)-7,8-dihydro-1,6-naphthyridin-6(5H)-yl)-2,8,9-trimethyl-4H-pyrimido[1,2-b]pyridazin-4-one] are 102% and 6.20.
`Cc1cc2nccc(=O)n2nc1N1CCc2ncc(-c3ccsc3C=O)cc2C1` [Compound 1-415, 3-(6-(8-methyl-4-oxo-4H-pyrimido[1,2-b]pyridazin-7-yl)-5,6,7,8-tetrahydro-1,6-naphthyridin-3-yl)thiophene-2-carbaldehyde]: the Emax at 30 µM came out at 86% and the pEC50 was 6.09.
